Source: patent publication US20250318529A1, “METHOD FOR MOSQUITO CONTROL” (SYNGENTA CROP PROTECTION AG, priority 2022, published 2025)

Assays:
Test in all cases: CDC bottle bioassay, adult female mosquitoes
An. gambiae Tiassale = type: in vivo, Anopheles gambiae; details: pyrethroid Resistant
Protocol: (§1) Examples B1-B3: Bottle Assay Based on the Guideline for Evaluating Insecticide Resistance in Vectors Using the CDC Bottle Bioassay
(§2) 1 ml of acetone containing a test compound at a defined concentration, and 1500 ppm Mero (Bayer Crop Science) was added to a 250 ml glass bottle, the bottle was placed on a rolling table to coat the inner surfaces as the solvent evaporated. Once dry, approximately twenty five non-blood fed adult female mosquitoes of the appropriate species and strains (each two or three days old) were aspirated from the stock culture and gently blown into the exposure bottle. The lid of the bottle was replaced, and the bottle placed upright out of direct sun light under standard culture conditions, nominally 28° C. and 60-80% relative humidity.
(§3) A stopwatch was started, and the assessment of the knock-down were made after 60 minutes. A mosquito was said to be knocked down if it was unable to stand, following the CDC definition.
(§4) After one hour the mosquitoes were carefully removed from the bottle with an aspirator and placed in a recovery cup. The mosquitoes were supplied with a 10% sucrose solution on a cotton wool bung, and stored under culture conditions. Assessments of the mortality were made after 24 and 48 hours.
(§5) Each treatment was replicated a minimum of three times, with the mean knockdown or mortality recorded. In each study, a set of bottles was infested with a known insecticide susceptible strain of mosquitoes from the same genera as the resistant strains.

An. gambiae M'Bé = type: in vivo, Anopheles gambiae; details: pyrethroid Resistant
Protocol: as §1, §2, §3, §4, §5

An. gambiae KisKDR = type: in vivo, Anopheles gambiae; details: pyrethroid Resistant
Protocol: as §1, §2, §3, §4, §5

An. gambiae Kisumu = type: in vivo, Anopheles gambiae; details: pyrethroid Susceptible
Protocol: as §1
[…] Once dry, approximately twenty five non-blood fed adult female mosquitoes of the appropriate species and strains (each two or three days old) were aspirated from the stock culture and gently blown into the exposure bottle. The lid of the bottle was replaced, and the bottle placed upright out of direct sun light under standard culture conditions, nominally 28° C. and 60-80% relative humidity.
as §3, §4, §5

Anopheles stephensi = type: in vivo; details: pyrethroid Susceptible
Protocol: as §1, §2, §3, §4, §5

[1] = Table B1, 25 μg/bottle + 1.5 mg Mero
[2] = Table B1, 50 μg/bottle + 1.5 mg Mero
[3] = Table B1, 250 μg/bottle + 1.5 mg Mero
[4] = Table B3, 25 μg/bottle + 1.5 mg Mero
[5] = Table B3, 50 μg/bottle + 1.5 mg Mero
[6] = Table B3, 250 μg/bottle + 1.5 mg Mero
[7] = Table B2, 50 μg/bottle + 1.5 mg Mero
[8] = Table B2, 250 μg/bottle + 1.5 mg Mero

## CC1(C)C(C=C(Cl)Cl)C1C(=O)OCc1cccc(Oc2ccccc2)c1 (stereo not shown) [Permethrin, reference compound]
An. gambiae Tiassale; Table B1, 20 μg/bottle
  Mean % mortality 60 minutes: 45.6%
  Mean % mortality 24 hours: 80%
An. gambiae Tiassale; Table B3, 20 μg/bottle
  Mean % mortality 60 minutes: 99.1%
  Mean % mortality 24 hours: 91.7%
An. gambiae M'Bé; Table B2, 20 μg/bottle
  Mean % mortality 60 minutes: 12.5%
  Mean % mortality 24 hours: 13.9%
An. gambiae KisKDR; Table B2, 20 μg/bottle
  Mean % mortality 60 minutes: 100%
  Mean % mortality 24 hours: 82.1%
An. gambiae Kisumu; Table B1, 20 μg/bottle
  Mean % mortality 60 minutes: 100%
  Mean % mortality 24 hours: 100%
An. gambiae Kisumu; Table B2, 20 μg/bottle
  Mean % mortality 60 minutes: 100%
  Mean % mortality 24 hours: 100%
An. gambiae Kisumu; Table B3, 20 μg/bottle
  Mean % mortality 60 minutes: 100%
  Mean % mortality 24 hours: 100%
Anopheles stephensi; Table B1, 20 μg/bottle
  Mean % mortality 60 minutes: 100%
  Mean % mortality 24 hours: 100%

## CCN1OCC(NC(=O)c2ccc(C3=NOC(c4cc(Cl)c(F)c(Cl)c4)(C(F)(F)F)C3)cc2C)C1=O (stereo not shown) [Isocycloseram]
An. gambiae Tiassale; [1]
  Mean % mortality 60 minutes: 38.4%
  Mean % mortality 24 hours: 89.6%
An. gambiae Tiassale; [2]
  Mean % mortality 60 minutes: 84%
  Mean % mortality 24 hours: 100%
An. gambiae Tiassale; [3]
  Mean % mortality 60 minutes: 98.4%
  Mean % mortality 24 hours: 100%
An. gambiae Tiassale; [4]
  Mean % mortality 60 minutes: 96.9%
  Mean % mortality 24 hours: 100%
An. gambiae Tiassale; [5]
  Mean % mortality 60 minutes: 99.2%
  Mean % mortality 24 hours: 100%
An. gambiae Tiassale; [6]
  Mean % mortality 60 minutes: 99.1%
  Mean % mortality 24 hours: 100%
An. gambiae M'Bé; [7]
  Mean % mortality 60 minutes: 37.8%
  Mean % mortality 24 hours: 70.3%
An. gambiae M'Bé; [8]
  Mean % mortality 60 minutes: 89.3%
  Mean % mortality 24 hours: 100%
An. gambiae KisKDR; [7]
  Mean % mortality 60 minutes: 86.7%
  Mean % mortality 24 hours: 100%
An. gambiae KisKDR; [8]
  Mean % mortality 60 minutes: 100%
  Mean % mortality 24 hours: 100%
An. gambiae Kisumu; [1]
  Mean % mortality 60 minutes: 56.8%
  Mean % mortality 24 hours: 89.6%
An. gambiae Kisumu; [2]
  Mean % mortality 60 minutes: 88.8%
  Mean % mortality 24 hours: 100%
An. gambiae Kisumu; [3]
  Mean % mortality 60 minutes: 99.2%
  Mean % mortality 24 hours: 100%
An. gambiae Kisumu; [7]
  Mean % mortality 60 minutes: 80.77%
  Mean % mortality 24 hours: 100%
An. gambiae Kisumu; [8]
  Mean % mortality 60 minutes: 80.77%
  Mean % mortality 24 hours: 100%
An. gambiae Kisumu; [4]
  Mean % mortality 60 minutes: 98.8%
  Mean % mortality 24 hours: 100%
An. gambiae Kisumu; [5]
  Mean % mortality 60 minutes: 96.4%
  Mean % mortality 24 hours: 100%
An. gambiae Kisumu; [6]
  Mean % mortality 60 minutes: 99.2%
  Mean % mortality 24 hours: 100%
Anopheles stephensi; [1]
  Mean % mortality 60 minutes: 12%
  Mean % mortality 24 hours: 70.4%
Anopheles stephensi; [2]
  Mean % mortality 60 minutes: 60.8%
  Mean % mortality 24 hours: 98.4%
Anopheles stephensi; [3]
  Mean % mortality 60 minutes: 79.2%
  Mean % mortality 24 hours: 100%
